Reference: patent US20220315895A1, “METHODS OF MAKING OLIGOPOTENT AND UNIPOTENT PRECURSORS” (Transfusion Health, LLC, priority 2019, published 2022)

What was measured:
[1] = system: CD34+ cells isolated from donor peripheral blood; assay: Enhancement of HSCs derived from non-mobilized peripheral blood with compounds of Formula I (Example 33); assay type: cell-based; details: normalized fold change days 2 to 7
Description: CD34+ cells were isolated from donor peripheral blood. Standard buffy coat separation using ficoll paque was performed. Cells were pelleted and incubated with unlabeled CD64 antibody. Cells then underwent negative depletion using biotinylated CD2, CD3, CD4, CD5, CD8, CD11b, CD14, CD16, CD19, CD20, CD45RA, CD56, CD235 (in some examples CD15, CD25 and other lineage specific antibodies may also be used). Cells which bind these antibodies are depleted using streptavidin beads. The enriched progenitor pool then undergoes cell sorting for CD34+.
Isolated CD34+ cells were incubated in an in vitro culture media of Alpha MEM without phenol red with 10% (v/v) heat inactivated fetal bovine serum (FBS). When testing compounds of Formula I, two internal controls were used: a positive control (+SF conditions) and a baseline control (i.e. basic conditions (“cytokines only”)). The media components and concentrations used for the compounds tested are described in [0563] Table 2. The culture also included an antibiotic solution that includes penicillin, streptomycin, and amphotericin B to avoid contamination. Controls were included because the amount of expansion in samples obtained varies from individual to individual.
(§1) Cultures were incubated at […] (controlled by nitrogen) and 5% CO2.
(§2) Small molecule components were added separately and fresh each time the media needs to be refreshed. Cytokines can be stored together. Media renewal should occur at least every few days.
On the days indicated one-half of the volume of the cell culture was removed for data analysis (flow cytometry using a BD FACS ARIA II). The culture volume was replenished with fresh media according to the conditions tested. The data reported accounts for the dilution factor introduced in this procedure.
Separate experiments were performed for each compound tested (Compound 1.001-1.023).
Table 3, below, summarizes the relative expansive effect of Compound 1.001 to 1.023 (sample compounds) at the indicated concentration. The data in Table 3 is reported as the relative expansive effect. The relative expansive effect is a normalized value of the fold changes shown in each of FIG. 1-FIG. 23. It is calculated as shown below: […]

[2] = system: CD34+ cells from cord blood; assay: Expansion of cord blood CD34+ cells, seven-day culture (Example 35); assay type: cell-based, human; details: normalized fold change days 1 to 7
Description: CD34+ cells from cord blood were purchased from STEMCELL Technologies. Primary human CD34+ cells were isolated from cord blood samples using positive immunomagnetic separation techniques. Cells were thawed and gradually brought to room temperature. Samples were washed, then placed in overnight culture in StemSpan with 100 ng/ml each of FLT3L, TPO, SCF, and TL-6. Eighteen to twenty-four hours later (day 1), cells were counted and immunophenotyped (flow cytometry on an Invitrogen Attune N×T cytometer).
Approximately 1000 live cells were plated into each well of 96-well plates; exact cell numbers dispensed per well were quantified with flow cytometry for later calculations.
Media for testing compounds of Formula I was prepared using Alpha MEM without phenol red, 10% (v/v) heat inactivated fetal bovine serum. Culture conditions also included an antibiotic solution that includes penicillin, streptomycin, and amphotericin B to avoid contamination. Additional media components and concentrations used for the compounds tested are described in Table 5.
All incubations for this experiment took place at 3% oxygen (controlled by nitrogen) and 5% CO2. Following seven days of culture, cells from wells were collected and phenotypes were analyzed (flow cytometry on an Invitrogen Attune N×T cytometer).
Table 6 below, summarizes the relative expansive effect of the screened compounds at the indicated concentration. The data in Table 6 is reported as the relative expansive effect. The relative expansive effect is a normalized value of the fold changes shown in each of the figures. It is calculated as shown below: […]

[3] = system: hematopoietic stem cells derived from cord blood; assay: Enhancement of HSCs derived from cord blood with Compound 1.008 (Example 34); assay type: cell-based
Description: A frozen cord blood sample was thawed and gradually brought to room temperature. Thawed cord blood was incubated in an in vitro culture media of Alpha MEM without phenol red, 10% (v/v) heat inactivated fetal bovine serum (FBS). Four samples were tested: Base conditions, +SF Conditions, +1.008 Conditions, and +1.008/+ER conditions. The components included in each condition is described in [0574] Table 4. Each condition tested also included an antibiotic solution that includes penicillin, streptomycin, and amphotericin B to avoid contamination.
as §1, §2
On the days indicated varying amounts of the cell culture was removed for data analysis (flow cytometry using a BD FACS ARIA II) and to avoid overcrowding of cells. The culture volume was replenished with fresh media according to the conditions tested. The data reported accounts for the dilution factor introduced in this procedure.

[4] = +1.008 conditions (Compound 1.008 250 nM), 19 days in culture

## CC(C)(C)C(=O)Nc1ccc2c(c1)C(=O)c1c(O)cccc1-2 [Compound 1.006]
[1]; sample compound 1 μM
  CD90 effect (relative expansive effect on CD34+/CD133+/CD90+ cells): ++++ (0.9 ≤ x < 1.25)
  CD133 effect (relative expansive effect on CD34+/CD133+ cells): +++ (0.55 ≤ x < 0.9)
[2]; sample compound 2 μM
  CD90 effect (relative expansive effect on CD34+/CD133+/CD90+ cells): ++ (1.44 ≤ x < 1.8)
  CD133 effect (relative expansive effect on CD34+/CD133+ cells): ++ (1.44 ≤ x < 1.8)

## CC(C)(C)C(=O)Nc1ccc2c(c1)C(=O)c1cc(O)ccc1-2 [Compound 1.007, N-(7-hydroxy-9-oxo-9H-fluoren-2-yl)pivalamide]
[1]; sample compound 4 μM
  CD90 effect (relative expansive effect on CD34+/CD133+/CD90+ cells): ++++ (0.9 ≤ x < 1.25)
  CD133 effect (relative expansive effect on CD34+/CD133+ cells): +++ (0.55 ≤ x < 0.9)
[2]; sample compound 2 μM
  CD90 effect (relative expansive effect on CD34+/CD133+/CD90+ cells): ++++ (2.16 ≤ x < 2.52)
  CD133 effect (relative expansive effect on CD34+/CD133+ cells): ++++ (2.16 ≤ x < 2.52)

## CC(C)(C)C(=O)Nc1ccc2c(c1)C(=O)c1cc(N)ccc1-2 [Compound 1.008, N-(7-amino-9-oxo-9H-fluoren-2-yl)pivalamide]
[1]; sample compound 4 μM
  CD90 effect (relative expansive effect on CD34+/CD133+/CD90+ cells): +++++ (1.25 ≤ x)
  CD133 effect (relative expansive effect on CD34+/CD133+ cells): +++ (0.55 ≤ x < 0.9)
[3]; [4]
  fold increase in CD34+/CD133+ cells from day 2: greater than 50 fold
  fold increase in CD34+/CD133+/CD90+ cells from day 2: ~20 fold
  fold increase in CD34+/CD133+/CD90+/CD38low/− cells from day 2: > 12 fold
[3]; +1.008 conditions (Compound 1.008 250 nM, TPO, SCF, FLT3L), 19 days in culture
  fold increase in CD34+ cells from day 2: greater than 50 fold
[2]; sample compound 8 μM
  CD90 effect (relative expansive effect on CD34+/CD133+/CD90+ cells): ++++ (2.16 ≤ x < 2.52)
  CD133 effect (relative expansive effect on CD34+/CD133+ cells): ++++ (2.16 ≤ x < 2.52)

## CC(=O)Nc1ccc2c(c1)C(=O)c1ccccc1-2 [Compound 1.009, N-(9-oxo-9H-fluoren-2-yl)acetamide]
[1]; sample compound 2 μM
  CD90 effect (relative expansive effect on CD34+/CD133+/CD90+ cells): +++++ (1.25 ≤ x)
  CD133 effect (relative expansive effect on CD34+/CD133+ cells): +++++ (1.25 ≤ x)
[2]; sample compound 0.5 μM
  CD90 effect (relative expansive effect on CD34+/CD133+/CD90+ cells): +++ (1.8 ≤ x < 2.16)
  CD133 effect (relative expansive effect on CD34+/CD133+ cells): +++ (1.8 ≤ x < 2.16)

## CC(C)(C)C(=O)Nc1ccc2c(c1)/C(=N/O)c1ccccc1-2 [Compound 1.013, N-(9-(hydroxyimino)-9H-fluoren-2-yl)pivalamide]
[1]; sample compound 4 μM
  CD90 effect (relative expansive effect on CD34+/CD133+/CD90+ cells): +++ (0.55 ≤ x < 0.9)
  CD133 effect (relative expansive effect on CD34+/CD133+ cells): +++ (0.55 ≤ x < 0.9)
[2]; sample compound 2 μM
  CD90 effect (relative expansive effect on CD34+/CD133+/CD90+ cells): +++++ (2.52 ≤ x)
  CD133 effect (relative expansive effect on CD34+/CD133+ cells): ++++ (2.16 ≤ x < 2.52)

## CC(C)(C)C(=O)Nc1cc2c(cc1O)-c1ccccc1C2=O [Compound 1.014, N-(3-hydroxy-9-oxo-9H-fluoren-2-yl)pivalamide]
[1]; sample compound 8 μM
  CD90 effect (relative expansive effect on CD34+/CD133+/CD90+ cells): +++ (0.55 ≤ x < 0.9)
  CD133 effect (relative expansive effect on CD34+/CD133+ cells): ++ (0.2 ≤ x < 0.55)
[2]; sample compound 8 μM
  CD90 effect (relative expansive effect on CD34+/CD133+/CD90+ cells): ++ (1.44 ≤ x < 1.8)
  CD133 effect (relative expansive effect on CD34+/CD133+ cells): ++ (1.44 ≤ x < 1.8)

## CC(C)(C)C(=O)Nc1ccc2c(c1)C(N)c1ccccc1-2 (stereo not drawn) [Compound 1.015, N-(9-amino-9H-fluoren-2-yl)pivalamide]
[1]; sample compound 2 μM
  CD90 effect (relative expansive effect on CD34+/CD133+/CD90+ cells): ++++ (0.9 ≤ x < 1.25)
  CD133 effect (relative expansive effect on CD34+/CD133+ cells): +++ (0.55 ≤ x < 0.9)
[2]; sample compound 0.5 μM
  CD90 effect (relative expansive effect on CD34+/CD133+/CD90+ cells): ++ (1.44 ≤ x < 1.8)
  CD133 effect (relative expansive effect on CD34+/CD133+ cells): ++ (1.44 ≤ x < 1.8)

## CCOC1c2ccccc2-c2ccc(NC(C)=O)cc21 (stereo not drawn) [Compound 1.021, N-(9-ethoxy-9H-fluoren-2-yl)acetamide]
[1]; sample compound 8 μM
  CD90 effect (relative expansive effect on CD34+/CD133+/CD90+ cells): ++ (0.2 ≤ x < 0.55)
  CD133 effect (relative expansive effect on CD34+/CD133+ cells): ++ (0.2 ≤ x < 0.55)
[2]; sample compound 8 μM
  CD90 effect (relative expansive effect on CD34+/CD133+/CD90+ cells): + (x < 1.44)
  CD133 effect (relative expansive effect on CD34+/CD133+ cells): + (x < 1.44)

## CC(=O)Nc1ccc2c(c1)C(OC(C)=O)c1ccccc1-2 (stereo not drawn) [Compound 1.022, 2-acetamido-9H-fluoren-9-yl acetate]
[1]; sample compound 32 μM
  CD90 effect (relative expansive effect on CD34+/CD133+/CD90+ cells): +++++ (1.25 ≤ x)
  CD133 effect (relative expansive effect on CD34+/CD133+ cells): +++ (0.55 ≤ x < 0.9)
[2]; sample compound 8 μM
  CD90 effect (relative expansive effect on CD34+/CD133+/CD90+ cells): ++ (1.44 ≤ x < 1.8)
  CD133 effect (relative expansive effect on CD34+/CD133+ cells): +++ (1.8 ≤ x < 2.16)

## CCOC1c2ccccc2-c2ccc(NC(=O)C(C)(C)C)cc21 (stereo not drawn) [Compound 1.023, N-(9-ethoxy-9H-fluoren-2-yl)pivalamide]
[1]; sample compound 32 μM
  CD90 effect (relative expansive effect on CD34+/CD133+/CD90+ cells): ++ (0.2 ≤ x < 0.55)
  CD133 effect (relative expansive effect on CD34+/CD133+ cells): + (x < 0.2)
[2]; sample compound 8 μM
  CD90 effect (relative expansive effect on CD34+/CD133+/CD90+ cells): ++ (1.44 ≤ x < 1.8)
  CD133 effect (relative expansive effect on CD34+/CD133+ cells): ++ (1.44 ≤ x < 1.8)

## ER50891 [reference compound]
[3]; ER50891 100 nM added to Compound 1.008 250 nM (+1.008/+ER conditions), compared with +1.008 alone
  fold increase levels of HSC populations on addition of ER50891: even further improved
